# Results from patent US20240352066A1, “ANTIMICROBIAL COMPOUNDS AND THE METHOD OF USE” (priority 2021, published 2024).
# Like-named read-outs stand apart in the source and are kept apart here. Where a SMILES comes first, the peptide text is derived from it. [ ]: non-standard residue; d: D form. The star is where a group is joined. Gly(N(CH2)2(3-indolyl)) = O=C(O)CNCCc1c[nH]c2ccccc12; Gly(Nα-4-Cl-benzyl) = O=C(O)CNCc1ccc(Cl)cc1; N(4-Br-benzyl)Gly = O=C(O)CNCc1ccc(Br)cc1; N(2-thienylmethyl)Gly = O=C(O)CNCc1cccs1; N(tridecyl)Gly = CCCCCCCCCCCCCNCC(=O)O; NBzl(4-I)Gly = O=C(O)CNCc1ccc(I)cc1; Gly(N-2-aminoethyl) = NCCNCC(=O)O; NFurfurylGly = O=C(O)CNCc1ccco1; X2 = CCCCCCCCN(CCCCCCCC)CC(=O)*; Gly(N-cHex) = O=C(O)CNC1CCCCC1; X1 = CCCCCCN(CCCCCC)CC(=O)*; Nphe = O=C(O)CNCc1ccccc1; Nlys = NCCCCNCC(=O)O; Sar = CNCC(=O)O
# How the values were obtained:
# C. neoformans [1] = assay type: cell-based, Cryptococcus neoformans; settings: 72 h
# Method: The minimum inhibitory concentration (MIC) of peptoids against fungal pathogens C. albicans and C. neoformans was determined following CLSI guidelines (CLSI. Reference method for broth dilution antifungal susceptibility testing of yeasts; approved standard-third edition; CLSI document M27-A3. (Clinical and Laboratory Standards Institute, 2008). […] This inoculant was diluted 1:100 into RPMI-MOPS and then further diluted 1:20 into RPMI-MOPS. 198 μL of inoculant was seeded into each well of a 96 well black-walled plate. 2-fold serial dilutions of 100× peptoid solutions were prepared in water and 2 μL of peptoid were added to each well in triplicate. […] MIC was defined as the lowest concentration of compound preventing fungal growth. This assay was repeated 3 times on separate days with each compound. […] The addition of 0.1 mL cell solution to 9.9 mL of RPMI-MOPS produced a 1:100 cell solution. After vortexing, 0.5 mL of the […] was added to 9.5 mL RPMI-MOPS to produce a 1:20 cell solution. 198 μL of the 1:20 solution was added to the wells of an opaque 96-well plate, apart from the wells designated for the medial control. […] Amphotericin B was used as a positive control, and sterile water was used for the vehicle control. The plates were incubated for 72 hours at 35° C. After incubation, the concentration of compound resulting in no visual growth was recorded as the MIC. All assays performed in biological triplicate on different days.
# [2] = Mammalian cytotoxicity, MTT, HepG2; assay type: cell-based, human; settings: human, HepG2 hepatocellular carcinoma cells
# Method: Hepatocellular carcinoma (HepG2), mouse fibroblast (3T3), human lung (HPL1A), and human keratinocyte (HaCat) cells were cultured in Dulbecco modified eagle media (DMEM) containing 10% fetal bovine serum (FBS) and 1% penicillin, streptomycin, and glutamine (PSG) at 37° C. and 5% CO2. Cells were collected and adjusted to […] to 4×10^5 cells/mL in phenol-red free DMEM and plated (100 μL) 96 well plates. 2-fold serial dilutions of 10× peptoid (11.1 μL) were added to each well in triplicate. Water (vehicle) was used as a negative control. Plates were incubated at 37° C. in 5% CO2 for 72 hours. Thiazolyl blue tetrazolium bromide (MTT) was added to each well (5 mg/mL; 20 μL) and incubated for 3 hours. Media was removed, DMSO (100 μL) was added, and plates were incubated at 37° C. for 10 minutes. Plates were read on a SpectraMax M5 plate reader (Abs. 570 nm). The concentration of compound resulting in a 50% reduction in growth compared to control (toxicity dose 50%; TD50) was determined using GraFit. This procedure was repeated three times on separate days.
# Cytotoxicity against HepG2 hepatocellular carcinoma cells was done as previously described (Green et al. ACS infectious diseases, (2022); Corson et al. ACS medicinal chemistry letters 7 12, 1139-1144 (2016)). HepG2 cells were maintained in culture in T-75 flasks using Dulbecco's Modified Eagle's Media (DMEM) with phenol red pH indicator and supplemented with 10% fetal bovine serum (FBS) and 1% penicillin, streptomycin, and glutamine (PSG). The cells were incubated at 37° C. and 5% CO2 in a humidified incubator until desired confluency was achieved. The media was removed from the flask, and the cells were washed 1× with 10 mL of phosphate-buffered saline (PBS; 11.8 mM phosphate, 140.4 mM NaCl; pH 7.4) which was then discarded. To remove the adhered cells from the flask, 2 mL of trypsin was added, and the cells were incubated for 10 minutes. To quench the trypsin, 8 mL of phenol red-free DMEM with 10% FBS and 1% PGS was added, and the cell solution was transferred to a 15 mL conical tube. After the cells were pelleted by centrifugation at 1000 rpm for 5 minutes, the supernatant was poured off and cells resuspended in the volume of phenol red-free media needed for the assay. Cell concentration was determined by counting with a hemocytometer, and the solution was diluted with media until a concentration of 1×10^5 cells/mL was achieved. A 100 μL aliquot of cell solution was added to each well of a 96-well plate, apart from the 3 wells used for a media control. Cells were incubated for 2-3 hours at 37° C. and 5% CO2 until cells were adherent.
# Compound stocks of 20 mg/mL were used to prepare 2-fold serial dilutions of each compound in sterile water, giving final concentrations of 200, 100, 50, 25, 12.5, 6.25, 3.13 and 1.56 μg/mL. 11.1 μL of prepared compound solutions was added to the appropriate wells in triplicate. A negative vehicle control of sterile water, as well as the aforementioned media control, were used. The plates were incubated for 72 hours at 37° C. and 5% CO2. After incubation, 20 μL of 5 mg/mL 3-(4,5-dimethylthiazol-2-yl)-2,5-diphenyltetrazolium bromide (MTT) in water was added to each well. The plate was incubated for 3 hours at 37° C. and 5% CO2. Media was removed from each well using a sterile glass Pasteur pipette. 100 μL of DMSO was added to each well and incubated for 15 minutes at 37° C. Absorbance was read at 570 nm using a SpectraMax M5 Plate Reader. This MTT assay was performed in biological duplicate unless discrepant results were observed. If this was the case, the assay was performed in biological triplicate for further verification. The reported value is the average of biological replicates with standard deviation.
# C. neoformans [3] = test: microbe, parasite or virus in culture; assay type: cell-based, Cryptococcus neoformans
# Method: Cell solution was diluted into RPMI-MOPS (1:100) followed by another dilution into RPMI-MOPS (1:20). […] Plates were incubated for 72 hours at 35° C. MIC was determined as the lowest concentration of individual compound or combined compounds inhibiting pathogen growth. Fractional inhibitory concentration index (FICi) was determine using the following equation: FICi values were interpreted as follows: FICi<0.5 synergistic; 0.5≤FICi≤4 indifferent; FICi>4 antagonist (Johnson et al., Antimicrob. Agents Chemother. 48, 693-715 (2004)).
C. neoformans MIC (C. neoformans [1]),Structure (SMILES),CC50 at 72 h [2],other results
1.56 to 3.13 µg/mL,CCCCCCCCCCCCCNCC(=O)N(CC(=O)N(CCCCN)CC(=O)N(CCN)CC(=O)N(CC(N)=O)c1ccc2c(c1)CCC2)c1ccc2c(c1)CCC2 [Compound 22],91 ± 4 µg/mL,–
–,CCCCCCCCCCCCCNCC(=O)N(CC(=O)N(CCCCN)CC(=O)N(CCN)CC(=O)N(C)CC(N)=O)C1CCCCC1 [Position 5] (H-[N(tridecyl)Gly][Gly(N-cHex)][Nlys][Gly(N-2-aminoethyl)][Sar]-NH2),> 200 µg/mL,MIC C. neoformans (C. neoformans [1]): 6.25 µg/mL
3.13 µg/mL,CCCCCCCCCCCCCNCC(=O)N(CC(=O)N(CCCCN)CC(=O)N(CCCCN)CC(=O)N(CC(N)=O)C1CCCCC1)C1CCCCC1 [Compound 2] (H-[N(tridecyl)Gly][Gly(N-cHex)][Nlys][Nlys][Gly(N-cHex)]-NH2),165 ± 97 µg/mL,–
6.25 µg/mL,CCCCCCCCCCCCCNCC(=O)N(CC(=O)N(CCCCN)CC(=O)N(CCN)CC(=O)N(CC(N)=O)Cc1ccc(I)cc1)Cc1ccc(I)cc1 [Compound 20] (H-[N(tridecyl)Gly][NBzl(4-I)Gly][Nlys][Gly(N-2-aminoethyl)][NBzl(4-I)Gly]-NH2),72.2 ± 24 µg/mL,–
6.25 µg/mL,CCCCCCCCN(CCCCCCCC)CC(=O)N(CC(=O)N(CCCCN)CC(=O)N(CCN)CC(=O)N(CC(N)=O)C1CCCCC1)C1CCCCC1 [Compound 7] (X2-[Gly(N-cHex)][Nlys][Gly(N-2-aminoethyl)][Gly(N-cHex)]-NH2),162 ± 29 µg/mL,–
–,CCCCCCCCCCCCCNCC(=O)N(CC(=O)N(CCCCN)CC(=O)N(C)CC(=O)N(CC(N)=O)C1CCCCC1)C1CCCCC1 [Position 4] (H-[N(tridecyl)Gly][Gly(N-cHex)][Nlys][Sar][Gly(N-cHex)]-NH2),84 µg/mL,MIC C. neoformans (C. neoformans [1]): 3.13 µg/mL
1.56 to 3.13 µg/mL,CCCCCCCCCCCCCNCC(=O)N(CC(=O)N(CCCCN)CC(=O)N(CCN)CC(=O)N(CC(N)=O)Cc1ccccc1)Cc1ccccc1 [Compound 15] (H-[N(tridecyl)Gly][Nphe][Nlys][Gly(N-2-aminoethyl)][Nphe]-NH2),145 ± 96 µg/mL,–
–,CCCCCCCCCCCCCNCC(=O)N(C)CC(=O)N(CCCCN)CC(=O)N(CCN)CC(=O)N(CC(N)=O)C1CCCCC1 [Position 2] (H-[N(tridecyl)Gly][Sar][Nlys][Gly(N-2-aminoethyl)][Gly(N-cHex)]-NH2),> 200 µg/mL,MIC C. neoformans (C. neoformans [1]): 6.25 µg/mL
–,CNCC(=O)N(CC(=O)N(CCCCN)CC(=O)N(CCN)CC(=O)N(CC(N)=O)C1CCCCC1)C1CCCCC1 [Position 1] (H-[Sar][Gly(N-cHex)][Nlys][Gly(N-2-aminoethyl)][Gly(N-cHex)]-NH2),> 200 µg/mL,MIC C. neoformans (C. neoformans [1]): >50.00 µg/mL
1.56 to 3.13 µg/mL,CCCCCCCCCCCCCNCC(=O)N(CC(=O)N(CCCCN)CC(=O)N(CCN)CC(=O)N(CC(N)=O)Cc1cccs1)Cc1cccs1 [Compound 25] (H-[N(tridecyl)Gly][N(2-thienylmethyl)Gly][Nlys][Gly(N-2-aminoethyl)][N(2-thienylmethyl)Gly]-NH2),154 ± 47 µg/mL,–
–,Nc1[nH]c(=O)ncc1F [Flucytosine],–,"MIC (C. neoformans [3]; Cryptococcus neoformans, checkerboard, 72 hours at 35° C., read-out: MIC (compound alone)): 2 µg/mL; interpretation of combination with RMG8-8 (C. neoformans [3]; FICi<0.5 synergistic, 0.5≤FICi≤4 indifferent, FICi>4 antagonist): indifferent; Combination MIC RMG8-8:Drug, RMG8-8 part (C. neoformans [3]; RMG8-8 concentration in combination with the named drug): 1.56 µg/mL; Combination MIC RMG8-8:Drug, Drug part (C. neoformans [3]; drug concentration in combination with RMG8-8): 2 µg/mL; FICi (C. neoformans [3]; named drug in combination with RMG8-8): 2"
3.13 µg/mL,CCCCCCCCCCCCCNCC(=O)N(CC(=O)N(CCCCN)CC(=O)N(CCN)CC(=O)N(CC(N)=O)Cc1ccc(Br)cc1)Cc1ccc(Br)cc1 [Compound 19] (H-[N(tridecyl)Gly][N(4-Br-benzyl)Gly][Nlys][Gly(N-2-aminoethyl)][N(4-Br-benzyl)Gly]-NH2),72.4 ± 20 µg/mL,–
3.13 to 6.25 µg/mL,CCCCCCCCCCCCCNCC(=O)N(CC(=O)N(CCCCN)CC(=O)N(CCN)CC(=O)N(CC(N)=O)Cc1ccco1)Cc1ccco1 [Compound 24] (H-[N(tridecyl)Gly][NFurfurylGly][Nlys][Gly(N-2-aminoethyl)][NFurfurylGly]-NH2),143 ± 94 µg/mL,–
1.56 to 3.13 µg/mL,CCCCCCCCCCCCCNCC(=O)N(CCc1c[nH]c2ccccc12)CC(=O)N(CCCCN)CC(=O)N(CCN)CC(=O)N(CCc1c[nH]c2ccccc12)CC(N)=O [Compound 23] (H-[N(tridecyl)Gly][Gly(N(CH2)2(3-indolyl))][Nlys][Gly(N-2-aminoethyl)][Gly(N(CH2)2(3-indolyl))]-NH2),85 ± 10 µg/mL,–
–,CCCCCCCCCCCCCNCC(=O)N(CC(=O)N(C)CC(=O)N(CCN)CC(=O)N(CC(N)=O)C1CCCCC1)C1CCCCC1 [Position 3],83 µg/mL,MIC C. neoformans (C. neoformans [1]): 3.13 µg/mL
6.25 µg/mL,CCCCCCCCCCCCCNCC(=O)N(CC(=O)N(CCCCN)CC(=O)N(CCN)CC(=O)N(CC(N)=O)c1cccc2ccccc12)c1cccc2ccccc12 [Compound 21],118 ± 19 µg/mL,–
3.13 µg/mL,CCCCCCCCCCCCCNCC(=O)N(CC(=O)N(CCCCN)CC(=O)N(CCN)CC(=O)N(CC(N)=O)Cc1ccc(Cl)cc1)Cc1ccc(Cl)cc1 [Compound 18] (H-[N(tridecyl)Gly][Gly(Nα-4-Cl-benzyl)][Nlys][Gly(N-2-aminoethyl)][Gly(Nα-4-Cl-benzyl)]-NH2),71.8 ± 24 µg/mL,–

Structure (SMILES),C. neoformans MIC (C. neoformans [1]),CC50 at 72 h [2],other results
CCCCCCN(CCCCCC)CC(=O)N(CC(=O)N(CCCCN)CC(=O)N(CCN)CC(=O)N(CC(N)=O)C1CCCCC1)C1CCCCC1 [Compound 6] (X1-[Gly(N-cHex)][Nlys][Gly(N-2-aminoethyl)][Gly(N-cHex)]-NH2),100 µg/mL,–,"CC50 at 72 h ([2]; Example 2, 72 hours, MTT, read-out: HepG2 TD50): > 200 µg/mL"
